The test deals with T1, human 5-HT4(a) (Homo sapiens, UniProt Q13639).
T1 construct: host or cells: GeneBlAzer HTR4-CRE-bla CHO-K1 cells
The test can be described thus: Evaluation of agonistic activity in CHO-K1 cells expressing human 5-HT4(a) (GeneBlAzer HTR4-CRE-bla CHO-K1, beta-lactamase reporter). To be noted: CHO-K1 cells stably expressing human 5-HT4(a). The class given is cell-based. The procedure, abridged: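 Agonism read as CRE-driven β-lactamase activity: emission ratio 465/535 nm (excitation 410 nm) after 2 h substrate loading. Preceded by 5 h compound treatment, 8 concentrations, 1% DMSO in the added solution, of overnight-plated reporter CHO-K1 cells; EC50 by non-linear regression.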

Where a name gives a salt, the structure may show the parent alone.

T1 sequence (Q13639 1-387 isoform Q13639-2): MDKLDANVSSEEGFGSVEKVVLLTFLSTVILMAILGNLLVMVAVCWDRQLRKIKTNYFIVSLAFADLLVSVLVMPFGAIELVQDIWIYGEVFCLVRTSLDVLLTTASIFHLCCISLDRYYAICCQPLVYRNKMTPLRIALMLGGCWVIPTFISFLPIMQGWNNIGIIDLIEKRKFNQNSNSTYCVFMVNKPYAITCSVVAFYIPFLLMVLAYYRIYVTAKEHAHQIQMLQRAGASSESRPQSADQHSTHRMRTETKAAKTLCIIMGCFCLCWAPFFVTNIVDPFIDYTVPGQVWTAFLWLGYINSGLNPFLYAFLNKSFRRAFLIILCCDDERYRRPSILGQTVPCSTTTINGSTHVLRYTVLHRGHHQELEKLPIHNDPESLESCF

On to `CCCc1cc(N2CCC[C@H]2C=O)nc(Nc2cccc(C#N)c2)n1` [Example 402, (S)-3-[4-(2-formylpyrrolidin-1-yl)-6-propylpyrimidin-2-ylamino]benzonitrile], for which it took 0.236 nM to reach a half-maximal effect (EC50). The result for `CCCc1cc(N2CC[C@H](N)C2)nc(Nc2ccc(F)cc2)n1` [Example 47, (S)-4-(3-aminopyrrolidin-1-yl)-N-(4-fluorophenyl)-6-propylpyrimidin-2-amine dihydrochloride] reads 0.38 nM; that for `CCCc1cc(N2CC[C@H](NC(=O)CCc3ccccc3)C2)nc(Nc2cccc(C#N)c2)n1` [Example 151, (S)-N-{1-[2-(3-cyanophenylamino)-6-propylpyrimidin-4-yl]pyrrolidin-3-yl}-3-phenylpropanamide], 0.334 nM; that for `CCCc1cc(N2CCC(NC(C)=O)C2)nc(Nc2cnc3ccccc3c2)n1` (stereo not shown) [Example 310], 0.37 nM. The molecule `CCCc1cc(N2CC[C@H](NC(C)=O)C2)nc(Nc2cc(N)cc(C#N)c2)n1` [Example 262] returned an EC50 of 0.0039 nM. Molecule `CCCc1cc(N2CC[C@H](NCC)C2)nc(Nc2ccc(N)c([N+](=O)[O-])c2)n1` [Example 176] showed an EC50 of 0.018 nM. Molecule `CCCc1cc(N2CCC[C@H]2COC)nc(Nc2ccc(F)c([N+](=O)[O-])c2)n1` [Example 31, (S)-N-(4-fluoro-3-nitrophenyl)-4-[2-(methoxymethyl)pyrrolidin-1-yl]-6-propylpyrimidin-2-amine] displayed a concentration for a half-maximal effect (EC50) of 0.13 nM. Take `CCCc1cc(N2CCC(NC(C)=O)C2)nc(Nc2ccc(F)c([N+](=O)[O-])c2)n1` (stereo not shown) [Example 296]: a half-maximal response (EC50) required 0.039 nM. The result for `CCCCc1cc(N2CC[C@H](NC(C)=O)C2)nc(Nc2ccc(C)c(C#N)c2)n1` [Example 492, (S)-N-{1-[6-butyl-2-(3-cyano-4-methylphenylamino)pyrimidin-4-yl]pyrrolidin-3-yl}acetamide hydrochloride] reads 0.019 nM; that for `CCCc1cc(N2CCC[C@H]2COC)nc(Nc2cccc([N+](=O)[O-])c2)n1` [Example 32, (S)-4-[2-(methoxymethyl)pyrrolidin-1-yl]-N-(3-nitrophenyl)-6-propylpyrimidin-2-amine], 0.23 nM. The result for `CCCc1cc(N2CCC[C@H]2COC)nc(Nc2ccc(C)c([N+](=O)[O-])c2)n1` [Example 40, (S)-4-[2-(methoxymethyl)pyrrolidin-1-yl]-N-(4-methyl-3-nitrophenyl)-6-propylpyrimidin-2-amine] reads 0.03 nM. Regarding `CCCc1cc(N2CCC[C@H]2CO)nc(Nc2ccc(F)c(C#N)c2)n1` [Example 214, (S)-2-fluoro-5-{4-[2-(hydroxymethyl)pyrrolidin-1-yl]-6-propylpyrimidin-2-ylamino}benzonitrile], the EC50 came out at 0.029 nM. `CCCCc1cc(N2CC[C@H](NCC)C2)nc(Nc2ccc(N)c(C(F)(F)F)c2)n1` [Example 467] registered an EC50 of 0.0014 nM. Take `CCCc1cc(N2CCC[C@H]2CNCCO)nc(Nc2cccc(C#N)c2)n1` [Example 407]: the EC50 was 0.254 nM. Molecule `CCCCc1cc(N2CC[C@H](NC(=O)OC(C)(C)C)C2)nc(Nc2ccc(C)c(C#N)c2)n1` [Example 232, (S)-tert-butyl 1-[6-butyl-2-(3-cyano-4-methylphenylamino)pyrimidin-4-yl]pyrrolidin-3-ylcarbamate] registered an EC50 of 0.13 nM. The result for `CCCc1cc(N2CC[C@H](NC(C)=O)C2)nc(Nc2ccc(N)cc2)n1` [Example 270] reads 0.204 nM; that for `CCCc1cc(N2CC[C@H](NC(=O)CNC(=O)OCc3ccccc3)C2)nc(Nc2cccc(C#N)c2)n1` [Example 165, (S)-benzyl 2-{1-[2-(3-cyanophenylamino)-6-propylpyrimidin-4-yl]pyrrolidin-3-ylamino}-2-oxoethylcarbamate], 0.2 nM. `CCCc1cc(N2CC[C@H](N)C2)nc(Nc2cccc(C#N)c2)n1` [Example 60, (S)-3-[4-(3-aminopyrrolidin-1-yl)-6-propylpyrimidin-2-ylamino]benzonitrile dihydrochloride] registered an EC50 of 0.047 nM. The same measure for `CCCCc1cc(N2CC[C@H](NC(C)=O)C2)nc(Nc2ccc(F)c(C#N)c2)n1` [Example 443]: 0.0099 nM; for `CCCc1cc(N2CC[C@H](NCc3cc(C)c(C)o3)C2)nc(Nc2ccc(C)c(C#N)c2)n1` [Example 424]: 0.02 nM; for `CCCc1cc(N2CCC[C@H]2C)nc(Nc2ccc(F)c(N)c2)n1` [Example 333]: 0.024 nM.

For `CCCc1cc(N2CC[C@H](NCc3ccc(OC(C)=O)cc3)C2)nc(Nc2cccc(C#N)c2)n1` [Example 109, (S)-4-({1-[2-(3-cyanophenylamino)-6-propylpyrimidin-4-yl]pyrrolidin-3-ylamino}methyl)phenylacetate], it took 0.012 nM to reach a half-maximal effect (EC50). The result for `CCCc1cc(N2CC[C@H](NC(C)=O)C2)nc(Nc2ccc(C)c([N+](=O)[O-])c2)n1` [Example 249, (S)—N-{1-[2-(4-methyl-3-nitrophenylamino)-6-propylpyrimidin-4-yl]pyrrolidin-3-yl}acetamide] reads 0.0018 nM; that for `CCCc1cc(N2CC[C@H](CN(CC)CC)C2)nc(Nc2cccc(C#N)c2)n1` [Example 434], 0.111 nM; that for `CCCc1cc(N2CC[C@H](NC(=O)Cc3ccc(F)cc3)C2)nc(Nc2cccc(C#N)c2)n1` [Example 67, (S)-N-{1-[2-(3-cyanophenylamino)-6-propylpyrimidin-4-yl]pyrrolidin-3-yl}-2-(4-fluorophenyl)acetamide], 0.19 nM. In the case of `CCCc1cc(N2CC[C@H](NCc3ccc[nH]3)C2)nc(Nc2cccc(C#N)c2)n1` [Example 111, (S)-3-(4-{3-[(1H-pyrrol-2-yl)methylamino]pyrrolidin-1-yl}-6-propylpyrimidin-2-ylamino)benzonitrile], the EC50 amounted to 0.008 nM. The same measure for `CCCc1cc(N2CCC[C@H]2COC)nc(Nc2ccc(N)c(C(F)(F)F)c2)n1` [Example 42, (S)-N^1-{4-[2-(methoxymethyl)pyrrolidin-1-yl]-6-propylpyrimidin-2-yl}-3-(trifluoromethyl)benzene-1,4-diamine]: 0.033 nM; for `CCCc1cc(N2CCC[C@H]2CO)nc(Nc2ccc(C)c(C#N)c2)n1` [Example 213]: 0.017 nM; for `CCCc1cc(N2CC[C@H](NC(=O)CO)C2)nc(Nc2ccc(Cl)c(N)c2)n1` [Example 479]: 0.0064 nM. The same measure for `CCCc1cc(N2CCC(NC(C)=O)C2)nc(Nc2ccc(N)c(C#N)c2)n1` (stereo not shown) [Example 311]: 0.019 nM. The result for `CCCc1cc(N2CC[C@H](NC(=O)Cc3ccc(N)cc3)C2)nc(Nc2cccc(C#N)c2)n1` [Example 73, (S)-2-(4-aminophenyl)-N-{1-[2-(3-cyanophenylamino)-6-propylpyrimidin-4-yl]pyrrolidin-3-yl}acetamide] reads 0.27 nM; that for `CCCc1cc(N2CCC[C@H]2CO)nc(Nc2ccc(F)c(N)c2)n1` [Example 400], 0.033 nM. For `CCCCc1cc(N2CC[C@H](N)C2)nc(Nc2ccc(C)c(C#N)c2)n1` [Example 234, (S)-5-[4-(3-aminopyrrolidin-1-yl)-6-butylpyrimidin-2-ylamino]-2-methylbenzonitrile dihydrochloride], the midpoint of the response, the EC50, lay at 0.0012 nM. The same measure for `CCCc1cc(N2CC[C@H](N)C2)nc(Nc2ccc(C)c(Cl)c2)n1` [Example 349, (S)-4-(3-aminopyrrolidin-1-yl)-N-(3-chloro-4-methylphenyl)-6-propylpyrimidin-2-amine dihydrochloride]: 0.016 nM.

Values taken from US9890138B2, “Diaminopyrimidine derivatives and processes for the preparation thereof” (YUHAN CORPORATION, priority 2011, dated 2018).
